pEC50: −log10 of the molar value.

One assay concerns NaCT-CHO (CHO cells stably expressing human NaCT). Put plainly: Assay of the citric acid cycle activation ([1,5-14C]-citric acid, diffusion of [14C]-CO2). In kind it is cell-based. To be noted: 1 hour incubation at 37° C. with [1,5-14C]-citric acid. In outline:
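NaCT-CHO cells (pME-CHO empty-vector cells for non-specific counts) were incubated 1 h at 37 °C in Na+-containing HEPES-Tris pH 7.4 with compound plus an equal volume of 0.4 mM [1,5-14C]-citric acid solution. Residual cell radioactivity was counted, [14C]-CO2 diffusion was taken as (Total−R)/(Total−NS)×100%, and EC50 was derived by regression.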
The compound `N#Cc1[nH]nnc1-c1nc(-c2cccc(Cl)c2)oc1C1CC1` [Example 121, 5-[2-(3-chloro-phenyl)-5-cyclopropyl-oxazol-4-yl]-3H-[1,2,3]triazole-4-carbonitrile] showed a negative-log EC50 (pEC50) of 6.00. Still for that read-out and setting: the same measure for `CC(C)c1oc(-c2ccc(F)cc2)nc1-c1nn[nH]c1C#N` [Example 123, 5-[2-(4-fluoro-phenyl)-5-isopropyl-oxazol-4-yl]-3H-[1,2,3]triazole-4-carbonitrile]: 6.17; for `CC(C)c1oc(-c2ccc(OC(F)(F)F)cc2)nc1-c1nn[nH]c1C#N` [Example 124, 5-[5-isopropyl-2-(4-trifluoromethoxy-phenyl)-oxazol-4-yl]-3H-[1,2,3]triazole-4-carbonitrile]: 6.04; for `CC(C)Cc1oc(-c2ccc(F)c(F)c2)nc1-c1nn[nH]c1C#N` [Example 125, 5-[2-(3,4-difluoro-phenyl)-5-isobutyl-oxazol-4-yl]-3H-[1,2,3]triazole-4-carbonitrile]: 6.27. `N#Cc1[nH]nnc1-c1sccc1-c1cc(C(F)(F)F)cc(C(F)(F)F)c1` [Example 126, 5-[3-(3,5-bis-trifluoromethyl-phenyl)-thiophen-2-yl]-3H-[1,2,3]triazole-4-carbonitrile] gave a pEC50 of 6.59. On the same count and under the same terms, the figure for `N#Cc1[nH]nnc1-c1sccc1-c1cccc(OCc2cc(C(F)(F)F)ccc2C(F)(F)F)c1` [Example 127, 5-{3-[3-(2,5-bis-trifluoromethyl-benzyloxy)-phenyl]-thiophen-2-yl}-3H-[1,2,3]triazole-4-carbonitrile] is 6.13; for `N#Cc1[nH]nnc1-c1cc(-c2ccccc2)c(C(F)(F)F)s1` [Example 128, 5-(4-phenyl-5-trifluoromethyl-thiophen-2-yl)-3H-[1,2,3]triazole-4-carbonitrile] it is 6.25; for `N#Cc1[nH]nnc1-c1ccc(-c2cc(F)cc(C(F)(F)F)c2)s1` [Example 129, 5-[5-(3-fluoro-5-trifluoromethyl-phenyl)-thiophen-2-yl]-3H-[1,2,3]triazole-4-carbonitrile] it is 6.36. On the same count and under the same terms, the figure for `Cc1cc(-c2nn[nH]c2C#N)sc1-c1ccc(C(F)(F)F)cc1` [Example 130, 5-[4-methyl-5-(4-trifluoromethyl-phenyl)-thiophen-2-yl]-3H-[1,2,3]triazole-4-carbonitrile] is 6.14; for `N#Cc1[nH]nnc1-c1ccc(Cc2ccc(Cl)cc2)s1` [Example 131, 5-[5-(4-chloro-benzyl)-thiophen-2-yl]-3H-[1,2,3]triazole-4-carbonitrile] it is 6.36. Same read-out and setting: the figure for `N#Cc1[nH]nnc1-c1ccc(Oc2cccc(C(F)(F)F)c2)s1` [Example 132, 5-[5-(3-trifluoromethyl-phenoxy)-thiophen-2-yl]-3H-[1,2,3]triazole-4-carbonitrile] is 6.49; for `N#Cc1[nH]nnc1-c1ccc(/C=C/c2cccc(C(F)(F)F)c2)s1` [Example 133, 5-{5-[(E)-2-(3-trifluoromethyl-phenyl)-vinyl]-thiophen-2-yl}-3H-[1,2,3]triazole-4-carbonitrile] it is 6.72; for `N#Cc1[nH]nnc1-c1cscc1-c1cc(C(F)(F)F)cc(C(F)(F)F)c1` [Example 134, 5-[4-(3,5-bis-trifluoromethyl-phenyl)-thiophen-3-yl]-3H-[1,2,3]triazole-4-carbonitrile] it is 7.07. Consider `N#Cc1[nH]nnc1-c1cc(/C=C/c2cccc(C(F)(F)F)c2)co1` [Example 135, 5-{4-[(E)-2-(3-trifluoromethyl-phenyl)-vinyl]-furan-2-yl}-3H-[1,2,3]triazole-4-carbonitrile], for which the pEC50 was 5.80. Still for that read-out and setting: the same measure for `N#Cc1[nH]nnc1-c1ccc(-c2ccc(Cl)cc2)o1` [Example 136, 5-[5-(4-chloro-phenyl)-furan-2-yl]-3H-[1,2,3]triazole-4-carbonitrile]: 6.17; for `N#Cc1[nH]nnc1-c1cccn1Cc1ccc(C(F)(F)F)cc1C(F)(F)F` [Example 138, 5-[1-(2,4-bis-trifluoromethyl-benzyl)-1H-pyrrol-2-yl]-3H-[1,2,3]triazole-4-carbonitrile]: 7.21; for `Cn1c(-c2cc(F)cc(C(F)(F)F)c2)ccc1-c1nn[nH]c1C#N` [Example 139, 5-[5-(3-fluoro-5-trifluoromethyl-phenyl)-1-methyl-1H-pyrrol-2-yl]-3H-[1,2,3]triazole-4-carbonitrile]: 6.68. On the same count and under the same terms, the same measure for `N#Cc1[nH]nnc1-c1ccn(-c2cc(C(F)(F)F)ccc2C(F)(F)F)c1` [Example 140, 5-[1-(2,5-bis-trifluoromethyl-phenyl)-1H-pyrrol-3-yl]-3H-[1,2,3]triazole-4-carbonitrile]: 6.10; for `N#Cc1[nH]nnc1-c1cccc(-c2cccc(C(F)(F)F)c2)n1` [Example 141, 5-[6-(3-trifluoromethyl-phenyl)-pyridin-2-yl]-3H-[1,2,3]triazole-4-carbonitrile]: 6.15.

`CCC(OCc1ccc(C(F)(F)F)cc1)c1cccc(-c2nn[nH]c2C#N)n1` (stereo not shown) [Example 142, 5-{6-[1-(4-trifluoromethyl-benzyloxy)-propyl]-pyridin-2-yl}-3H-[1,2,3]triazole-4-carbonitrile]: the negative-log EC50 (pEC50) was 6.24. On the same count and under the same terms, the figure for `N#Cc1[nH]nnc1-c1ccc(-c2cccc(C(F)(F)F)c2)nc1` [Example 143, 5-[6-(3-trifluoromethyl-phenyl)-pyridin-3-yl]-3H-[1,2,3]triazole-4-carbonitrile] is 5.99. Same read-out and setting: the same measure for `N#Cc1[nH]nnc1C1CCN(c2cc(C(F)(F)F)ccc2C(F)(F)F)CC1` [Example 144, 5-[1-(2,5-bis-trifluoromethyl-phenyl)-piperidin-4-yl]-3H-[1,2,3]triazole-4-carbonitrile]: 6.10; for `N#Cc1[nH]nnc1-c1ccc2ccn(-c3ccc(F)c(F)c3)c2c1` [Example 145, 5-[1-(3,4-difluoro-phenyl)-1H-indol-6-yl]-3H-[1,2,3]triazole-4-carbonitrile]: 6.43; for `N#Cc1[nH]nnc1-c1sc2ccccc2c1-c1ccc(F)cc1` [Example 148, 5-[3-(4-fluoro-phenyl)-benzo[b]thiophen-2-yl]-3H-[1,2,3]triazole-4-carbonitrile]: 6.04. The same measure, in the same setting: the figure for `N#Cc1[nH]nnc1Cc1cccc(-c2cccc(C(F)(F)F)c2)c1` [Example 149, 5-(3′-trifluoromethyl-biphenyl-3-ylmethyl)-3H-[1,2,3]triazole-4-carbonitrile] is 6.15; for `N#Cc1[nH]nnc1CCc1ccccc1OCc1cc(C(F)(F)F)ccc1C(F)(F)F` [Example 150, 5-{2-[2-(2,5-bis-trifluoromethyl-benzyloxy)-phenyl]-ethyl}-3H-[1,2,3]triazole-4-carbonitrile] it is 6.07.

In a further assay the test system is Zucker Diabetic Fatty (ZDF) rat. Put plainly: Meal load test in type 2 diabetic model rats (postprandial blood glucose). In kind it is in vivo. The arrangement: unit not given here. The following applies: ZDF rats fasted overnight, oral 30 mg/kg in 5% Arabia gum, blood glucose one hour after meal loading (50 kcal/kg). On the procedure:
Effects on Type 2 Diabetes: Meal Load Test
To evaluate whether a cyanotriazol compound improves diabetes or not, especially related to postprandial blood glucose, meal load test was performed using one of type 2 diabetic model rats, the Zucker Diabetic Fatty (ZDF) rat (Charles river, Japan). About 24 animals fasted overnight (17 h) were taken blood samples from the tail veins, and measured blood glucose levels (Pre BG) and body weights (BW). Proper animals were selected and divided into […] (n=6) based on the Pre BG and BW using SAS Statistical Analysis System (SAS institute Japan Ltd. Release 9.1). The compounds to be tested (10 or 30 mg/kg body weight in 5% Arabia gum) or Arabia gum solution only (vehicle group) were orally administrated via gavage two hours prior to or just before meal loading (50 kcal/kg body weight). The meal suspension was prepared by mixing purified AIN-93G (Norsan Corp, Yokohama, Japan) and distilled water (2:3, w/v). One-hour after meal loading, blood glucose (BG1h) of each animal was measured. Effectiveness of each compound was shown by ? BG1h (BG1h difference between compound group and vehicle group). Although a set of 24 animals was used several times (from 13 weeks to 21 weeks of age), at least a one-week interval was placed from one to another test.
With `CC(OC(=O)OCC(C)(C)C(=O)O)n1nc(C#N)c(-c2cccc(OCc3cc(C(F)(F)F)ccc3C(F)(F)F)c2)n1` (stereo not shown) [Example 1806, 3-(1-{4-[3-(2,5-bis-trifluoromethyl-benzyloxy)-phenyl]-5-cyano-2H-[1,2,3]triazol-2-yl}-ethoxycarbonyloxy)-2,2-dimethyl-propionic acid], the “BG1h (BG1h difference between compound group and vehicle group)” value was −86.3. On the same count and under the same terms, the figure for `CC(OC(=O)OCC(C)(C)C(=O)O)n1nc(C#N)c(-c2cc(Cl)cc(-c3ccc4c(c3)OC(F)(F)O4)c2)n1` (stereo not shown) [Example 1808, 3-(1-{4-[3-chloro-5-(2,2-difluoro-benzo[1,3]dioxol-5-yl)-phenyl]-5-cyano-2H-[1,2,3]triazol-2-yl}-ethoxycarbonyloxy)-2,2-dimethyl-propionic acid] is −76.0; for `CC(OC(=O)OCC(C)(C)C(=O)O)n1nc(C#N)c(-c2cc(Cl)cc(-c3nccc(C(F)(F)F)n3)c2)n1` (stereo not shown) [Example 1810, 3-(1-{4-[3-chloro-5-(4-trifluoromethyl-pyrimidin-2-yl)-phenyl]-5-cyano-2H-[1,2,3]triazol-2-yl}-ethoxycarbonyloxy)-2,2-dimethyl-propionic acid] it is −53.2. Still for that read-out and setting: the figure for `CC(OC(=O)OCC(C)(C)C(=O)O)n1nc(C#N)c(-c2cc(Cl)cc(/C=C/c3cccc(C(F)(F)F)c3)c2)n1` (stereo not shown) [Example 1811, 3-[1-(4-{3-chloro-5-[(E)-2-(3-trifluoromethyl-phenyl)-vinyl]-phenyl}-5-cyano-2H-[1,2,3]triazol-2-yl)-ethoxycarbonyloxy]-2,2-dimethyl-propionic acid] is −84.5.

Turning to `COc1cc(-c2cc(C(F)(F)F)ccn2)cc(-c2nn(C(C)OC(=O)OCC(C)(C)C(=O)O)nc2C#N)c1` (stereo not shown) [Example 1812, 3-(1-{4-cyano-5-[3-methoxy-5-(4-trifluoromethyl-pyridin-2-yl)-phenyl]-2H-[1,2,3]triazol-2-yl}-ethoxycarbonyloxy)-2,2-dimethyl-propionic acid], the “BG1h (BG1h difference between compound group and vehicle group)” value is reported as −111.8.
